Consider three compounds from patent US20080275135A1, “Resorcinol Derivatives and Their Use for Lowering Blood Pressure” (priority 2004, published 2008).

Entries after “also recorded” stand apart in the source; their conditions may differ.

The subject of series [1] is rat aortic rings. The note with it: literature, Offertaler et al. 2003; cited from earlier work.
Series [2] is described as follows: Blood pressure in anesthetized rats after i.v. bolus. It is filed as in vivo, Sabra rats. As for the experimental part:
The protocol for testing blood pressure was applied essentially as previously described [Shochina, M. and Horowitz, M. (1989) J. Therm. Biol. 14, 109 113]. Adult male Sabra rats weighing between 225 to 250 g had their femoral vein cannulated for intravenous (i.v.) drug administration. Anesthesia was induced by the intraperitoneal (i.p.) injection of pentobarbital sodium 6%, 60 mg/kg. The femoral artery was cannulated and a catheter (PE 10 cannulae) was connected to a pressure transducer for continuous monitoring of blood pressure with a physiograph (AcKnowledge program). After a 30 minute stabilization period, the animals were injected with either vehicle (sahine:ethanol:Emulphor® 18:1:1) or the drug (Compound 1, as described above, varying from 1 to 10 mg/kg) injected in bolus i.v. in volumes ≧500 μl. The changes in blood pressure were monitored for 60 minutes. […] The hypotensive activity of Compound 1 leads the way to a new class of atypical cannabinoids with no psychotropic activity and with a mechanism of action differing from the anti-hypertensive drugs known to date.

Series [3] has as its target T1, cannabinoid receptor CB1 (Rattus norvegicus, UniProt P20272).
T1 construct: from tissue
Description: Cannabinoid receptor binding, [3H]HU-243 displacement, synaptosomal membranes. As to conditions: data not shown. How it is done: (§1) The protocol for cannabinoid receptor binding has been previously described [Devane W. A. et al. (1992) Science 258, 1946-1949]. […] Bound and free radioligand were separated by centrifugation. The data were normalized to 100% of specific binding, which was determined with 50 nM unlabeled HU-243. The Ki value was determined using the program GraphPad Prism (Version 3.02) which follows the Cheng-Prusoff equation. A sigmoid dose-response (variable slope) built-in equation in this Prism program was used to fit the curves.

The target in series [4] is T2, cannabinoid receptor CB2 (Homo sapiens, UniProt P34972).
T2 construct: expressed in transfected cells
T2 sequence (P34972 whole entry): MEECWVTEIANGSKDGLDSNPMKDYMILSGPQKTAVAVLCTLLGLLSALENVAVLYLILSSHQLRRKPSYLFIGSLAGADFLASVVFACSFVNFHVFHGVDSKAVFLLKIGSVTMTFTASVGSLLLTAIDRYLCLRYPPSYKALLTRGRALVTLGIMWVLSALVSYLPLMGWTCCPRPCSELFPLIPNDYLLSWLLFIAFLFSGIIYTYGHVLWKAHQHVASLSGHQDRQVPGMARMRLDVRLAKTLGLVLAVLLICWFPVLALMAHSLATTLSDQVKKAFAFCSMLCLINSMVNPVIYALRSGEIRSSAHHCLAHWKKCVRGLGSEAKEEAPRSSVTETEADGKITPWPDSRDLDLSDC
Description: Cannabinoid receptor binding, [3H]HU-243 displacement, transfected cells. As to conditions: data not shown. As for the experimental part:
as §1

The test system of series [5] is rat aortic rings. As to the kind of experiment: Relaxation of phenylephrine pre-contracted aortic rings. The arrangement: species or system Sabra rats. As to conditions: for maximum vasorelaxation: FIG. 2A. How it is done:
Abdominal aortic rings of male Sabra rats of 300 g average body weight were obtained from the animal facility of the Hebrew University of Jerusalem, campus Ein Kerem, Jerusalem, Israel. The animals were anaesthetized by an intra-peritoneal injection of pentobarbital (50 mg kg^−1). After thoracotomy, the aorta was excised, transferred to a dish filled with Krebs-Henseleit buffer (composition in mM: NaCl 150.0, KCl 5.4, MgSO4 1.17, NaH2 PO4 1.18, NaHCO3 6.0, CaCl2 1.0, HEPES 20.0, glucose 5.5, pH 7.4), cleared of periadventitial tissue, and cut into ring segments (3 mm in length). Only segments of the abdominal aorta were used. Two stainless-steel hooks were carefully passed through the lumen of each ring. One hook was connected to an isometric force transducer (BIOPAC Instruments, Goleta, Calif.) to measure tension in the vessels. The rings were placed in a 10-ml organ bath, gassed with 5% CO2 in O2 and maintained at 37° C. The rings were stretched until an optimal basal tension of 1.0 g. After this tension was achieved they were allowed to equilibrate for 60 minutes with the bath fluid being changed every 15-20 min. Baseline tension usually stabilized within 60 min of mounting, during which time there were four replacements of bathing solution. The segment was then pre-contracted by 5 μM phenylephrine. […] The levels of relaxation were then measured. The endothelial function was assessed by testing the relaxant effect of acetylcholine (10 nM-[…]) on aortic rings pre-contracted with phenylephrine. Failure of acetylcholine to elicit relaxation of aortic rings previously subjected to rubbing of the intimal surface was taken as evidence of endothelium removal. Concentration-response curves were generated by cumulative addition of the agonist. Whenever antagonists (PTX 0.5 μg/ml, SR-141716 A, SR-144528 or 10 μM of 0-1918) were used, they were added 20 min before the agonist (FIG. 2B). All experiments were conducted with aluminum foil-covered organ bath to prevent light-induced degradation of the drugs.

The target of series [6] is T1, cannabinoid receptor CB1. As to conditions: high affinity receptor probe; read-out: dissociation constant; cited from earlier work.

T1 sequence (P20272 whole entry): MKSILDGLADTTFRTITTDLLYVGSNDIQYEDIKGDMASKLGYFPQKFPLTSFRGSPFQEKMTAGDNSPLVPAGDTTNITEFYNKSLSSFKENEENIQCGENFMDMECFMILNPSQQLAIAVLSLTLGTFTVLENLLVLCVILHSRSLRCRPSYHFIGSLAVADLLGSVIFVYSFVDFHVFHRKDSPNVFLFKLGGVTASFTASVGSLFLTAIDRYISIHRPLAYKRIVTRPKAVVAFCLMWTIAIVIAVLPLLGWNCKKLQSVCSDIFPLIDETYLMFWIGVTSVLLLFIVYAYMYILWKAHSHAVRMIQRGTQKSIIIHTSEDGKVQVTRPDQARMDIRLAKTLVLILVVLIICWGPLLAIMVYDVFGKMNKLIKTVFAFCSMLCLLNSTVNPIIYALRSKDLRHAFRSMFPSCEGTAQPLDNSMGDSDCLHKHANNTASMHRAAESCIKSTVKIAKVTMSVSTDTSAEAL

In the case of `C=C(C)[C@@H]1CCC(C)=C[C@H]1c1c(O)cc(O)cc1CCCCC` (relative stereo) [Abn-CBD, (−)-4-(3-3,4-trans-p-menthadien-1,8)-yl-olivetol], in series [1], the “antagonism by O-1918” value is on record as “antagonized by 0-1918”.

With `CCCCCCC(C)(C)c1cc(O)c(C/C=C(\C)CCC=C(C)C)c(O)c1` [Compound 1, 2-geranyl-5-(1,1-dimethylheptyl)-resorcinol], the “effect on blood pressure (BP)” value in series [2] (2.5 mg/kg i.v., FIG. 1) is “Reduction in blood pressure is already observed”; in series [2] (5 mg/kg i.v.), “caused hypotension”; in series [2] (5 mg/kg i.v., listed as CBG-DMH) it was “the effect becomes much more pronounced”. Moreover, the “change in heart rate” value in series [2] (5 mg/kg i.v.) is given as “without causing change in the heart rate”. In series [2] (1 to 10 mg/kg bolus i.v., FIG. 1), the “mean systolic blood pressure over 60 minutes” value is given as “clear reduction of the systolic blood pressure”. Also, the “antagonism of hypotensive effect by CBD” value in series [2] (CBD in similar doses) is reported as “antagonized by CBD”. The “binding to CB1” value in series [3] was “no binding”. In addition, in series [4], the “binding to CB2” value is “no binding”. Besides, the “antagonism of relaxation by O-1918” value in series [5] (10 μM O-1918 added 20 min before agonist, FIG. 2B, listed as CBG-DMH) is recorded as “did not result in antagonism; also recorded: does not antagonize”. For the same compound, the “relaxation of pre-contracted segments” value in series [5] (cumulative doses, 5 μM phenylephrine pre-contraction) was “led to relaxation of the contracted segments”. The maximum vasorelaxation is given as 25% in series [5] (denuded artery) and 55% in series [5] (intact artery). For the same compound, in series [5] (pertussis toxin 0.5 μg/ml, data not shown), the “aortic vasorelaxant effect in presence of pertussis toxin” value was “inhibited in the presence of pertussis toxin”. Also, in series [5] (preliminary data), the vasodilator function result is “functions as a vasodilator”.

Regarding `CCCCCCC(C)(C)c1cc(O)c2c(c1)OC(C)(C)[C@@H]1CC[C@@H](CO)C[C@@H]21` [[^3H]HU-243], in series [6], the Kd is 0.045 nM.
